Assay results: patent US20070099821A1, “METHOD OF ACTIVATING INSULIN RECEPTOR SUBSTRATE-2 TO STIMULATE INSULIN PRODUCTION” (Sanofi-Aventis Deutschland GmbH, priority 2001, published 2007)

How the values were obtained:
K6 myoblasts = assay: DNA synthesis (BrdU incorporation) in K6 myoblasts; format: cell-based, rat; details: serum-starved K6 myoblasts, 16 h; FCS at 10%
Protocol: Effects of insulin, insulin analogs and IGF-I on the incorporation of 5-bromo-2′-deoxyuridine (BrdU) into DNA in K6 myoblasts. Myoblasts were serum-starved for 30 h in DMEM and subsequently incubated with BrdU in the absence (basal) or presence of the indicated concentrations of peptide hormones or fetal calf serum (FCS) for 16 h. Cells were fixed, denatured and the incorporation of BrdU was determined using an anti-BrdU antiserum and ECL detection. Data are mean values±SEM of four separate experiments.
For monitoring DNA synthesis, K6 myoblasts (1×10^4 cells/well) were seeded in 24-well microtiter tissue culture plates and were cultured for 24 h in DMEM containing 10% FCS, followed by a 30 h culture period under serum-free conditions. Cells were then stimulated with the different peptide hormones or 10% FCS for 16 h with the simultaneous addition of 5-bromo-2′-deoxyundine (BrdU). After removing the labeling mediums the cells were fixed and the DNA was denatured by addition of FixDenat (Boehringer Mannheim, Germany). Cells were then incubated with a peroxidase-conjugated anti-BrdU antiserum, and after addition of substrate the light emission was quantified on a Lumilmager work station.

INS-1 cells = assay: Cytokine-induced apoptosis in pancreatic β-cells (INS-1, nucleosomal release ELISA); format: cell-based, rat; details: IL-1β + IFN-γ, 24 h, IGF-I 10 nM, mean ± SEM of 4-5 experiments
Protocol: The rat insulinoma cell line INS-1 was grown in RPMI 1640 medium supplemented with 10% heat-inactivated fetal calf serum (FCS), 500 U/ml penicillin, 50 μg/ml streptomycin, 2 mmol/l glutamine and 50 μmol/l 2-mercaptoethanol and passaged by trypsinization. Functional integrity of the cells was confirmed by measuring glucose-stimulated insulin secretion. INS-1 cells were routinely seeded at 3.5×10^5 cells/well of a 12-well plate for cell death detection experiments and used on day 4 at 60-70% confluence.
Subconfluent INS-1 cells were incubated for 2 h in RPMI 1640 medium (Eggenstein, Germany) without FCS supplemented with 0.5% BSA. After this serum free period the medium was removed and replaced with fresh RPMI 1640 containing 5% FCS and 0.5% BSA. […] The induced apoptosis was measured by the specific determination of mono- and oligonucleosomes in the cytoplasmatic fraction of cell lysates using a cell death detection ELISA kit (Roche). The assay is based on a quantitative sandwich-enzyme-immunoassay-principle using mouse monoclonal anti-histone and anti-DNA peroxidase antibodies. The relative degree of apoptotic cell death was photometrically determined by measuring the peroxidase activity of the immunocomplexes at 405 nm. […]

IGF-I: insulin-like growth factor I, peptide hormone used as comparator
Increase in BrdU-incorporation / DNA synthesis, fold (K6 myoblasts): 4 fold | Inhibition of cytokine-induced apoptosis (INS-1 cells): 42 ± 2%
